From US20260217699A1, “BERBERINE TAUROURSODEOXYCHOLATE COMPOSITIONS AND METHODS THEREOF” (SHENZHEN HIGHTIDE BIOPHARMACEUTICAL LTD., priority 2023, published 2026)

Legend:
Type in all cases: in vivo, Sprague-Dawley rats
[1] = test system: 6-OHDA Stereotactic Injection Induced PD Rats; assay: Apomorphine-asymmetric rotation test
Source text: (§1) The rats were respiratory anesthetized with isoflurane; the head was fixed to ensure that there was no movement and the brain surface was adjusted to be flat; the head was shaved, and a skin incision was made along the sagittal suture to expose the fontanel point; the glass electrode was positioned to the fontanel, and the axes of the coordinate monitor were zeroed to locate the brain areas of the SN and the Str based on the coordinates, in which the SN: AP=−5.0 mm; ML=−1.9 mm; DV=−8.5 mm, and Str: AP=+0.5 mm; ML=−3.0 mm; DV=−6.0 mm. […]; slowly inserted the needle into the localized area of SN and Str, waited for 10 min, and then administered the drug of 6-OHDA at a rate of […] for 10 min, and each animal was given […] of each of SN and Str area, and then the needle was slowly withdrawn after the drug was administered for 10 min, and the PD rat model was established.
The animals were tested three weeks post-administration. 0.5 mg/kg of apomorphine was injected intraperitoneally. The number of rotations of each rat in 30 min were recorded, and the rat appeared to rotate in place toward the opposite side of the injury using the rotating forelimb as a support point. […]
Experimental Methods: Seventy 180-220g SD male rats were selected and fed for one week for accumulation, and the PD model was established by stereotactic unilateral injection of 6-OHDA in the Substantia Nigra (SN) and Striatum (Str) regions and were randomly divided into five groups according to their body weights including Madopar group (Madopar, 50 mg/kg), BTUDC-L group (BTUDC, 100 mg/kg), BTUDC-M group (BTUDC, 500 mg/kg), and BTUDC-H group (BTUDC, 1000 mg/kg), with 10 animals in each group. […] At the end of the administration, the test articles were evaluated for tolerance in this model and in behavioral apomorphine—asymmetric rotation test, beam test, rotarod test and grip strength test, immunofluorescence staining (TH, Ibal), and cerebrospinal fluid inflammatory factor assays to evaluate the pharmacodynamic effects of the test articles. […]

[2] = test system: 6-OHDA Stereotactic Injection Induced PD Rats; assay: Balance beam test; conditions: for Foot Slips Times / Passage Time: Mean ± SEM, N=10; for Foot Slips Times: Model 1.7 ± 0.2; for Passage Time: Model 10.9 ± 1.3
Source text: as §1
The rat was placed on a balance beam. The time was recorded it took for the rat to pass the balance beam as well as the number of foot slips (feet leave the top of the balance beam). The average of the two successful passing times and the number of foot slips were used as the evaluation criteria for the rat's locomotor balance ability. Information regarding beam test can also be found in the literature (Allbutt, et al. 2007 J Neurosci Methods 159(2):195-202; Fine, et al. 2014 Brain Res. 1574:96-104).
In this study, 16 Sprague Dawley (SD) male rats 180g-220g were used to establish a PD model by stereotactic unilateral injection of 6-OHDA in the substantia nigra (SN) and striatum (Str) brain areas after one week of acclimatization feeding and were randomly divided into 2 groups of 8 rats each. One group was dosed with the test compound BTUDC 500 mg/kg (QD, p.o.) and the other group was the Model group, which was given an equal volume of 0.5% CMC-Na (QD, p.o.) as the test compound group. The animals were administered once a day for 21 consecutive days starting from the second day after modeling to evaluate the tolerability and therapeutic potential of BTUDC in the 6-OHDA PD model.
Experimental Methods: Seventy 180-220g SD male rats were selected and fed for one week for accumulation, and the PD model was established by stereotactic unilateral injection of 6-OHDA in the Substantia Nigra (SN) and Striatum (Str) regions and were randomly divided into five groups according to their body weights including Madopar group (Madopar, 50 mg/kg), BTUDC-L group (BTUDC, 100 mg/kg), BTUDC-M group (BTUDC, 500 mg/kg), and BTUDC-H group (BTUDC, 1000 mg/kg), with 10 animals in each group. Another 10 SD male rats were taken for sham operation (only 4 μL of 0.9% NS containing 0.02% ascorbic acid was given to the SN and Str brain regions during modeling) as the Sham group. The drug was administered by gavage once daily continuously for 21 days starting on the second day of modeling (first day of dosing, D1). General observation was made during the dosing period. At the end of the administration, the test articles were evaluated for tolerance in this model and in behavioral apomorphine—asymmetric rotation test, beam test, rotarod test and grip strength test, immunofluorescence staining (TH, Ibal), and cerebrospinal fluid inflammatory factor assays to evaluate the pharmacodynamic effects of the test articles. Inflammatory factors tested included interleukin 6 (1L-6), inflammatory factor […], Tumor Necrosis Factor alpha (TNF-α), inflammatory assays were done in a total of 4 groups included Sham, Model, Madopar and BTUDC-H groups.

[3] = test system: IL-6; assay: Elisa test of cerebrospinal fluid, IL-6; conditions: rat cerebrospinal fluid; BTUDC-H 1000 mg/kg p.o. Qd 21 days; Mean ± SEM, n=10; Model 159.058 ± 6.349; p<0.05 vs Model
Source text: The cerebrospinal fluid was directly extracted by inserting a needle through the foramen magnum, and the supernatant was collected after centrifugation for ELISA testing. The kit brand was Shanghai Enzyme Link. The product codes of IL-6, IL-1β, and TNF-α were m1064292, m1037361, and m1002859, respectively. Processed the sample according to the instructions of the ELISA detection kit, adjusted the blank well to zero, measured the absorbance (OD value) of each well sequentially at a wavelength of 450 nm, and calculated the sample concentration based on the standard curve and OD value. […]
Dosing volume: 10 mL/kg • 1. […] Histochemical test: After the behavioral test, the cerebrospinal fluid from each animal (N=10) was collected, centrifuged to collect the supernatant, and stored at −80° C. for Elisa test (IL-6, IL-1β, TNF-α), then the animals in each group (N=5) were randomly selected to take the modeling side of the striatum for the detection of neurotransmitters, and the rest of them (N=5) were subjected to cardiac perfusion, which was performed by the process of perfusion, fixation, sedimentation and slicing for immunofluorescence staining and photographed, and the number or area of signals were counted by ImageJ software. • 4. […]

[4] = BTUDC-H 1000 mg/kg p.o. Qd 21 days, p<0.001 vs Model

## COc1ccc2cc3[n+](cc2c1OC)CCc1cc2c(cc1-3)OCO2.C[C@H](CCC(=O)NCCS(=O)(=O)[O-])[C@H]1CC[C@H]2[C@@H]3[C@@H](O)C[C@@H]4C[C@H](O)CC[C@]4(C)[C@H]3CC[C@]12C [BTUDC, Berberine tauroursodeoxycholate]
[1]; 500 mg/kg QD p.o. 21 days, p>0.05
  difference in number of ipsilateral rotations within 30 minutes vs Model group: no statistically significant difference
[1]; BTUDC-H 1000 mg/kg p.o. Qd 21 days
  number of rotational circles within 30 min of apomorphine injection vs Model group: significantly lower
[1]; within 30 minutes of apomorphine injection, 500 mg/kg/day p.o. 21 days, 8 rats, Model 126.380 ± 31.681
  Number of Ipsilateral Rotation: 109.000 ± 23.670
[2]; 500 mg/kg QD p.o. 21 days, Model 1.313 ± 0.3772, P < 0.001 vs Model
  Beam Test Number of feet slips: 0.250 ± 0.0945
[2]; 500 mg/kg QD p.o. 21 days, Model 9.938 ± 1.8088, P < 0.001 vs Model
  Beam Test Passing time: 3.563 ± 0.6228 s
[2]; [4]
  Foot Slips Times: 0.6 ± 0.2
  Passage Time: 4.8 ± 0.4 s
[2]; BTUDC-L 100 mg/kg p.o. Qd 21 days, p<0.05 vs Model
  Foot Slips Times: 1.0 ± 0.3
[2]; BTUDC-L 100 mg/kg p.o. Qd 21 days, p<0.01 vs Model
  Passage Time: 8.0 ± 0.7 s
[2]; BTUDC-M 500 mg/kg p.o. Qd 21 days, p<0.01 vs Model
  Foot Slips Times: 0.8 ± 0.2
[2]; BTUDC-M 500 mg/kg p.o. Qd 21 days, p<0.001 vs Model
  Passage Time: 6.4 ± 0.7 s
[3]
  IL-6 Conc.: 147.095 ± 1.871 pg/mL
